Measurements from US9821072B2, “Activated neurotensin molecules and the uses thereof” (priority 2014, dated 2017).
Bridge positions count the residues as written; N and C are the ends. Square brackets hold non-standard residues; d marks the D form. Peptide text beside a SMILES is read from it. * marks the point of attachment. Pen = CC(C)(S)[C@H](N)C(=O)O; Tle = CC(C)(C)[C@H](N)C(=O)O; Pip = O=C(O)[C@@H]1CCCCN1; Propionyl = CCC(=O)*; Sar = CNCC(=O)O

Legend:
[1] = system: Sprague-Dawley rats; assay: Hypothermic response after i.v. bolus in Sprague-Dawley rats; type: in vivo, rat; details: 5 mg/kg eq. NT i.v. bolus
[2] = biological target: T1, human neurotensin receptor type 1 (hNTR-1) (Homo sapiens, UniProt P30989); assay: Competition binding assay with [3H]-neurotensin on human NTR-1 membranes (CHO cells); details: read-out: NTR-1 binding affinity Ki, Human NTR-1
T1 construct: purchased PerkinElmer; host or cells: CHO cells stably expressing human NTR-1 (membrane homogenates)

[3] = biological target: T2, rat neurotensin receptor type 1 (rNTR-1) (Rattus norvegicus, UniProt P20789); assay: Competition binding assay with [3H]-neurotensin on rat NTR-1 membranes (HEK293 cells); details: read-out: NTR-1 binding affinity Ki, Rat NTR-1
T2 construct: host or cells: HEK293 cells (membrane homogenates)

[4] = system: FVB/N mice with KA-induced status epilepticus; assay: Kainic acid-induced status epilepticus model (body temperature, seizures, neurodegeneration, neuroinflammation, mossy fiber sprouting); type: in vivo, mouse; details: administered 30 min after SE onset
Text: In the present case, excitotoxicity was induced by subcutaneous (s.c.) injection of kainic acid (KA), a pro-convulsant agent known to induce a status epilepticus (SE) with excitotoxicity, neuroinflammation, and severe neuronal damage in the hippocampus that can be observed 3 to 7 days after KA administration, and with aberrant axonal sprouting of the dentate gyrus mossy fibers that can be observed at 7-8 weeks after KA administration. We tested the effect of compound XIV on i) epileptic activity (persistence of recurrent seizures), ii) neurodegeneration, neuroinflammation and the resulting brain tissue damage and iii) aberrant axonal sprouting of the dentate gyrus mossy fibers.
FVB/N adult male mice were injected with a single dose of KA (40-45 mg/kg s.c.) to generate mice with spontaneous recurrent seizures as a hallmark of SE. A negative control group of mice were administered saline 0.9% instead of KA and no further treatment (“SHAM”, n=5). Thirty minutes after the onset of SE, mice received either an intravenous (tail vein) bolus injection of compound XIV at the dose of 4 mg/kg eq. NT (treatment group “SE+HT”, n=5) or saline 0.9% (group “SE”, n=5), or a high dose of diazepam (DZP) at 15 mg/kg), a potent anti-convulsive and anti-epileptic drug (positive control group “SE+DZP”). Body temperature was monitored before KA injection and then every 15 min during 6 hours thereafter, using a rectal probe. During this period, mice were assessed for the occurrence and severity of motor seizures. One week later, animals were sacrificed for histological assessment of neuronal cell death on coronal sections, the hippocampal formation being the main structure in the brain showing tissue damage in this model of excitotoxicity. Another group of animals with the same treatments was sacrificed 8 weeks for histological assessment of aberrant axonal sprouting of the dentate gyrus mossy fibers.
Administration of KA (40-45 mg/kg; s.c.) caused characteristic sequential behavioral changes. Immediately after being injected, all animals developed immobility (stage 1). Within 30 minutes after KA injection, automatisms with head nodding, forelimb clonus and circling behavior (stages 2-3) were observed. Then most animals progressed to intermittent (stage 4) followed by continuous (stage 5) rearing with forelimb clonus and falling behavior. […] Only animals attaining at least Racine stage 5 seizures were included in the study. The SE occurred around 2 hours after KA injection, was characterized by stage 5-6 seizures and often associated with hyperthermia (FIG. 13A). Compound XIV administered 30 min after SE onset (SE30) invariably led to transient hypothermia (FIG. 13A), which persisted at least 2 hrs. Mean decreases in body temperature (BT) of −2.5° C. and −3.6° C. were respectively recorded for SE30+ compound XIV animals as compared to SE animals (F=52.34; ***P<0.001). […] SE30+ compound XIV animals presented an average of stage 2 seizures or fewer during the rest of experiment. A subset of animals was administered i.p. a high dose of diazepam (DZP). […] Thus, administration of compound XIV at the dose of 4 mg/kg eq. […] This effect correlated with a −3 to −6° C. decrease in body temperature during ˜2.5 hours.
Using the anti-NeuN antibody and Fluoro-jade C that respectively label a neuronspecific nuclear protein and neuronal death, we observed a broad loss of CA1 and CA3 pyramidal cells as well as some dentate hilar neurons in the hippocampus of control SE animals (FIG. 14A, panel B), as compared to SHAM animals (FIG. 14A, panel A).
SE-induced gliosis involved microglia and astroglial cell types. We used GFAP and Iba1 immunolabeling to estimate the effect of compound XIV on neuroinflammation. In SHAM animals, a basal labeling for GFAP and Iba1 was detected in the HF (FIG. 14A, panel D). In SE animals, a very strong activation of glial cells occurred in all hippocampal layers (FIG. 14, panels E, H). […]

T2 sequence (P20789 whole entry): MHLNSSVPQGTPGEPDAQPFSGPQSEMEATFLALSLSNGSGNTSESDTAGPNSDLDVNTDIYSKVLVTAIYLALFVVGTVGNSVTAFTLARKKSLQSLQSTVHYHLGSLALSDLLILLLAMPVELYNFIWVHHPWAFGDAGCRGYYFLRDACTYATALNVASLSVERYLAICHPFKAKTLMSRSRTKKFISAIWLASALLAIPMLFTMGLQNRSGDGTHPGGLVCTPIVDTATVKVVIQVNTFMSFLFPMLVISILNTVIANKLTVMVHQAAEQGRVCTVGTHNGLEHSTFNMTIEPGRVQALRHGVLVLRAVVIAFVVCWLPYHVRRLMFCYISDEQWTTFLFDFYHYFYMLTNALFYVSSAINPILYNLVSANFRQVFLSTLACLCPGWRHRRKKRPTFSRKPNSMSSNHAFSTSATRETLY
T1 sequence (P30989 whole entry): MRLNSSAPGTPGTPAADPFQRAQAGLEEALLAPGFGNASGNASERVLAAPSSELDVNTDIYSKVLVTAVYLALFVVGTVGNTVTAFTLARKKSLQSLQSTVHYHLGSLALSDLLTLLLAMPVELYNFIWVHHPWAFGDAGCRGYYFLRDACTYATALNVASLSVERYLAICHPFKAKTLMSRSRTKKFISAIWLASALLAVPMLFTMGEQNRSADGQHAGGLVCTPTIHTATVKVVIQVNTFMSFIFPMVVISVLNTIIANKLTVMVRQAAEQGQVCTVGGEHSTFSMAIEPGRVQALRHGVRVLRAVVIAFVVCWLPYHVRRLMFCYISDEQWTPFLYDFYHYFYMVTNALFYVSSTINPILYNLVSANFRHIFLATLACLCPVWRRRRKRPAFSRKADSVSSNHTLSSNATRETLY

Row | Structure (SMILES) | Maximal decrease in body temperature ([1]; 60 to 90 min post-injection) | Ki [2] [pM] | Ki [3] [pM] | also measured
1 | CCC(=O)N[C@@H]1CSSC[C@@H](C(=O)N[C@@H](CCCNC(=N)N)C(=O)N[C@@H](CCCNC(=N)N)C(=O)N2CCC[C@H]2C(=O)N[C@@H](Cc2ccc(O)cc2)C(=O)N[C@H](C(=O)N[C@@H](CC(C)C)C(=O)O)[C@@H](C)CC)NC(=O)CN(C)C(=O)[C@H](CCCNC(=N)N)NC(=O)[C@H](CC(C)C)NC(=O)[C@H](CCCNC(=N)N)NC(=O)[C@@H]2CCCCN2C(=O)[C@H](CCSC)NC1=O [Compound IX, Pr-cMPipRLRSarC-RRPYIL-OH] | – | – | – | Maximal decrease in body temperature ([1]; 30 min post-injection): −1.2 °C
2 | CCC(=O)N[C@@H]1CSSC[C@@H](C(=O)N[C@@H](CCCNC(=N)N)C(=O)N[C@@H](CCCNC(=N)N)C(=O)N2CCC[C@H]2C(=O)N[C@@H](Cc2ccc(O)cc2)C(=O)N[C@H](C(=O)N[C@@H](CC(C)C)C(=O)O)C(C)(C)C)NC(=O)CN(C)C(=O)[C@H](CCCNC(=N)N)NC(=O)[C@H](CC(C)C)NC(=O)[C@H](CCCNC(=N)N)NC(=O)[C@@H]2CCCCN2C(=O)[C@H](CCSC)NC1=O [Compound XV, Pr-cMPipRLRSarC-RRPYTIeL-OH] (Propionyl-[dC]M[Pip]RLR[Sar]CRRPY[Tle]L-OH; disulfide 1-8) | around −2 °C | 400 ± 200 | 60 ± 20 | –
3 | CN1C(=O)CN=C(c2ccccc2)c2cc(Cl)ccc21 [DZP, diazepam, reference compound] | – | – | – | effect on body temperature (BT) compared with SE animals [4]: hypothermia was also observed; glial inflammatory response in the hippocampus (GFAP, Iba1) compared with SE animals [4]: significantly decreased; seizure stage (Racine) during the rest of the experiment [4]: 1-2 stage; number of mossy fiber terminals innervating the IML (ZnT3) compared with SE animals ([4]; 8 weeks after SE): considerably reduced; neurodegeneration in the hippocampus (NeuN, Fluoro-jade C) compared with SE animals ([4]; one week later): significantly decreased
4 | CCC(=O)N[C@@H]1CSSC[C@@H](C(=O)N[C@@H](CCCCN)C(=O)N[C@@H](CCCNC(=N)N)C(=O)N2CCC[C@H]2C(=O)N[C@@H](Cc2c[nH]c3ccccc23)C(=O)N[C@H](C(=O)N[C@@H](CC(C)C)C(=O)O)C(C)(C)C)NC(=O)CN(C)C(=O)[C@H](CCCNC(=N)N)NC(=O)[C@H](CC(C)C)NC(=O)[C@H](CCCNC(=N)N)NC(=O)[C@@H]2CCCCN2C(=O)[C@H](CCSC)NC1=O [XIX, Pr-cMPipRLRSarC-KRPWTIeL-OH] (Propionyl-[dC]M[Pip]RLR[Sar]CKRPW[Tle]L-OH; disulfide 1-8) | – | 6340 ± 2250 | 30 ± 20 | Maximal decrease in body temperature ([1]; 90 min post-injection): around −2.8 °C
5 | CCC(=O)N[C@@H]1CSSC[C@@H](C(=O)N[C@@H](CCCCN)C(=O)N[C@@H](CCCNC(=N)N)C(=O)N2CCC[C@H]2C(=O)N[C@@H](Cc2ccc(O)cc2)C(=O)N[C@H](C(=O)N[C@@H](CC(C)C)C(=O)O)C(C)(C)C)NC(=O)CN(C)C(=O)[C@H](CCCNC(=N)N)NC(=O)[C@H](CC(C)C)NC(=O)[C@H](CCCNC(=N)N)NC(=O)[C@@H]2CCCCN2C(=O)[C@H](CCSC)NC1=O [XVI, Pr-cMPipRLRSarC-KRPYTIeL-OH] (Propionyl-[dC]M[Pip]RLR[Sar]CKRPY[Tle]L-OH; disulfide 1-8) | around −2 °C | 150 ± 60 | – | –
6 | CCC(=O)N[C@@H]1CSSC[C@@H](C(=O)N[C@@H](CCCNC(=N)N)C(=O)N[C@@H](CCCCN)C(=O)N2CCC[C@H]2C(=O)N[C@@H](Cc2ccc(O)cc2)C(=O)N[C@H](C(=O)N[C@@H](CC(C)C)C(=O)O)C(C)(C)C)NC(=O)CN(C)C(=O)[C@H](CCCNC(=N)N)NC(=O)[C@H](CC(C)C)NC(=O)[C@H](CCCNC(=N)N)NC(=O)[C@@H]2CCCCN2C(=O)[C@H](CCSC)NC1=O [XVII, Pr-cMPipRLRSarC-RKPYTIeL-OH] (Propionyl-[dC]M[Pip]RLR[Sar]CRKPY[Tle]L-OH; disulfide 1-8) | around −2 °C | 470 ± 190 | 190 ± 70 | –
7 | CCC(=O)N[C@@H]1CSSC[C@@H](C(=O)N[C@@H](CCCNC(=N)N)C(=O)N[C@@H](CCCNC(=N)N)C(=O)N2CCC[C@H]2C(=O)N[C@@H](Cc2c[nH]c3ccccc23)C(=O)N[C@H](C(=O)N[C@@H](CC(C)C)C(=O)O)C(C)(C)C)NC(=O)CN(C)C(=O)[C@H](CCCNC(=N)N)NC(=O)[C@H](CC(C)C)NC(=O)[C@H](CCCNC(=N)N)NC(=O)[C@@H]2CCCCN2C(=O)[C@H](CCSC)NC1=O [XVIII, Pr-cMPipRLRSarC-RRPWTIeL-OH] (Propionyl-[dC]M[Pip]RLR[Sar]CRRPW[Tle]L-OH; disulfide 1-8) | – | 2980 ± 1080 | 20 ± 10 | Maximal decrease in body temperature ([1]; 90 min post-injection): around −2.8 °C
8 | CCC(=O)N[C@@H]1CSSC(C)(C)[C@@H](C(=O)N[C@@H](CCCCN)C(=O)N[C@@H](CCCNC(=N)N)C(=O)N2CCC[C@H]2C(=O)N[C@@H](Cc2ccc(O)cc2)C(=O)N[C@H](C(=O)N[C@@H](CC(C)C)C(=O)O)C(C)(C)C)NC(=O)CN(C)C(=O)[C@H](CCCNC(=N)N)NC(=O)[C@H](CC(C)C)NC(=O)[C@H](CCCNC(=N)N)NC(=O)[C@@H]2CCCCN2C(=O)[C@H](CCSC)NC1=O [XX, Pr-cMPipRLRSarPen-KRPYTIeL-OH] (Propionyl-[dC]M[Pip]RLR[Sar][Pen]KRPY[Tle]L-OH; disulfide 1-8) | around −2 °C | 110 ± 30 | 80 ± 60 | –
